Assay results published in patent publication US8759535B2, “Substituted fused imidazole derivatives, pharmaceutical compositions, and methods of use thereof” (High Point Pharmaceuticals, LLC, priority 2010, dated 2014).
Structures can show the parent of a compound that is named as a salt.

Test system: HMOX1
Assay: HMOX1 Protein Assay (immunostaining of HO-1 in NHLF cells, GE InCell 1000)
Type: cell-based
Details: Homo sapiens, fold change above DMSO treated cells, 16 h; for fold induction at 5 µM: 5 μM compound; for fold induction at 3 µM: 3 μM compound (asterisk)
In short: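 NHLF cells seeded overnight in FGM-2, then exposed to compound or DMSO vehicle for 16 h, fixed, and immunostained for HO-1 with Hoechst nuclear counterstain; imaged on InCell 1000. Values are fold change over DMSO-treated cells, generally at 5 μM (0.8% DMSO), with asterisked entries at 3 μM.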

| SMILES | fold induction at 5 µM | fold induction at 3 µM |
| --- | --- | --- |
| Cn1c(Nc2nc3ccc(Cl)cc3s2)nc2cc(C(=O)NCCN3CCCC(F)(F)C3)ccc21 [Example 336, 2-(6-Chloro-benzothiazol-2-ylamino)-1-methyl-1H-benzoimidazole-5-carboxylic acid [2-(3,3-difluoro-piperidin-1-yl)-ethyl]-amide] | 16.1 | – |
| CN1CCN(CCCNC(=O)c2ccc3c(c2)nc(Nc2nc4ccc(Cl)cc4s2)n3C)CC1 [Example 356, 2-(6-Chloro-benzothiazol-2-ylamino)-1-methyl-1H-benzoimidazole-5-carboxylic acid [3-(4-methyl-piperazin-1-yl)-propyl]-amide] | – | 19 |
| Cc1nc(-c2ccc3nc(Nc4nc5cc(OC(F)(F)F)ccc5s4)n(C)c3c2)n[nH]1 [Example 198, [1-Methyl-6-(5-methyl-1H-1,2,4-triazol-3-yl)-1H-benzimidazol-2-yl]-(5-trifluoromethoxy-benzothiazol-2-yl)-amine] | 12 | – |
| Cn1c(Nc2nc3ccc(Cl)cc3s2)nc2cc(C(=O)NCCCCN)ccc21 [Example 347, 2-(6-Chloro-benzothiazol-2-ylamino)-1-methyl-1H-benzoimidazole-5-carboxylic acid (4-amino-butyl)-amide hydrochloride] | – | 15.3 |
| CN(C)CC(=O)N1CCC[C@H](NC(=O)c2ccc3c(c2)nc(Nc2nc4ccc(Cl)cc4s2)n3C)C1 [Example 312, 2-(6-Chloro-benzothiazol-2-ylamino)-1-methyl-1H-benzoimidazole-5-carboxylic acid [(S)-1-(2-dimethylamino-acetyl)-piperidin-3-yl]-amide] | 68.8 | – |
